Article PMC4190524, “The Flux of Select NSAIDs through Silicone Membranes from Mineral Oil” (Pharmaceutics, 2014)
Read-outs that look alike come from different tables or passages of the source.

Key:
[1] = Calculated solubilities in octanol, pH 7.4 buffer and acidic water; assay type: physicochemical; conditions: data from Wenkers and Lippold 1999; for log S1.0: solubility in acidic water (pH 1.0), calculated from log SMO − log KMO:1.0; for log SOCT: solubility in octanol, calculated from log KOCT:MO and log SMO; for log S7.4: solubility in pH 7.4 phosphate buffer, calculated from log SOCT − log KOCT:7.4
Experimental: Experimental solubility in mineral oil from Wenkers and Lippold was converted to units of mM from mg/dL. The values of log S7.4 were calculated from log SOCT − log KOCT:7.4, the values of log SOCT were calculated from log KOCT:MO + log SMO, and the values of log S1.0 were calculated from log SMO − log KMO:1.0.

[2] = parameters: method as in Wenkers and Lippold 1999 [6]; conditions: log maximum flux through human skin in vivo from mineral oil; ref Wenkers and Lippold 1999 [6]; cited from earlier work
[3] = Maximum flux through silicone membranes from mineral oil (Franz diffusion cells)
[4] = Calculated log partition coefficients; assay type: physicochemical; conditions: data from Wenkers and Lippold 1999; for log KMO:1.0: mineral oil:acidic water (pH 1.0) partition coefficient, calculated from log KOCT:1.0 − log KOCT:MO; for log KOCT:MO: octanol:mineral oil partition coefficient, calculated from log KOCT:1.0 − log KMO:1.0
[5] = Stability in pH 7.1 phosphate buffer (receptor phase); assay type: physicochemical; conditions: measured after 24 h as salicylic acid
Experimental: Molar extinction coefficients for the compounds in pH 7.1 phosphate buffer, the receptor phase, were determined experimentally. Each compound was initially dissolved in a small volume of acetonitrile (except Diflunisal, which was dissolved in ethanol). These solutions were diluted further with the buffer solution to concentrations that would produce accurate UV absorptions. A plot of absorbance versus concentration produced the slope in units of M^−1. There was only one instance of a major variation in this procedure. […] Thus, the molar extinction coefficient and the concentrations measured after 24 h were that of salicylic acid.

[6] = pH 7.1
[7] = log maximum flux through silicone membrane from mineral oil suspension, 32 °C, pH 7.1 phosphate buffer receptor phase, measured directly

| SMILES | log S1.0 [1] [mM] | log SOCT [1] [mM] | log S7.4 [1] [mM] | log JMPMO ([3]; first procedure, 3 h collection intervals) | log JMPMO [3, 7] [µmol cm^−2 h^−1] | log JMPMO ([3]; repeat diffusion cell experiment with 2 h collection intervals, receptor phases ≤20% saturation) | log KMO:1.0 [4] | log KOCT:MO [4] | log JMPMO [6] [µmol cm^−2 h^−1] | log JMHMO [2] [µmol cm^−2 h^−1] | stability in phosphate buffer [5] |
| --- | --- | --- | --- | --- | --- | --- | --- | --- | --- | --- | --- |
| O=C(O)Cc1ccccc1Nc1c(Cl)cccc1Cl [Diclofenac] | −2.43 | 1.89 | −0.09 | – | −1.91 | – | 1.41 | 2.91 | – | −2.89 | – |
| O=C(O)c1ccccc1Nc1cccc(C(F)(F)F)c1 [Flufenamic Acid] | −2.21 | 2.46 | 0.31 | – | −0.60 | – | 2.74 | 1.93 | – | −1.86 | – |
| CC(=O)Oc1ccccc1C(=O)O [Aspirin] | – | 3.14 | 5.18 | – | −1.18 | – | −2.02 | 3.96 | – | −1.72 | readily hydrolyzed to salicylic acid and acetic acid |
| O=C(O)c1cc(-c2ccc(F)cc2F)ccc1O [Diflunisal] | −2.05 | 2.19 | 1.61 | – | −1.69 | – | 0.88 | 3.36 | – | −2.44 | – |
| CC(C)Cc1ccc(C(C)C(=O)O)cc1 (centres unmarked) [Ibuprofen] | −0.97 | 3.24 | 2.02 | – | 0.34 | – | 3.06 | 1.15 | – | −0.25 | – |
| CC(C(=O)O)c1cccc(C(=O)c2ccccc2)c1 (centres unmarked) [Ketoprofen] | – | – | – | – | −1.18 | – | – | – | – | – | – |

Further lines, with some results ahead:

| log S1.0 [1] [mM] | log SOCT [1] [mM] | log S7.4 [1] [mM] | log JMPMO ([3]; first procedure, 3 h collection intervals) | log JMPMO [3, 7] [µmol cm^−2 h^−1] | log JMPMO ([3]; repeat diffusion cell experiment with 2 h collection intervals, receptor phases ≤20% saturation) | log KMO:1.0 [4] | log KOCT:MO [4] | log JMPMO [6] [µmol cm^−2 h^−1] | SMILES | log JMHMO [2] [µmol cm^−2 h^−1] | stability in phosphate buffer [5] |
| --- | --- | --- | --- | --- | --- | --- | --- | --- | --- | --- | --- |
| −1.53 | 1.76 | −1.12 | −1.55 | −1.53 | −1.53 | 2.72 | 0.57 | – | COc1ccc2cc(CCC(C)=O)ccc2c1 [Nabumetone] | −1.10 | – |
| −0.94 | 0.75 | 0.95 | – | −2.08 | – | 0.20 | 1.49 | – | CN1C(C(=O)Nc2ccccn2)=C(O)c2ccccc2S1(=O)=O [Piroxicam] | −2.40 | – |
| – | – | – | – | – | – | – | – | −1.46 | COc1ccc2cc([C@H](C)C(=O)O)ccc2c1 [Naproxen] | – | – |
